For this assay, the system named is mannosidase. In words: Staining with targeted mannosidase substrates after incubation with mannosidase inhibitor. It is filed as cell-based, human. As to conditions: 100 uM inhibitor, 1 day (Golgi) or 5 days (ER); substrate 20 uM, 4 hours; AG06173, FIG. 2. Here is the method: Normal, healthy human lung fibroblasts (Cell line AG06173, Coriell Institute for Medical Research, Camden, N.J.) were prepared according to example 17 and plated in an optical bottom 96 well plate at 1×10^4 cells/mL.
Cells were then incubated at 37° C. and 5% CO2 in complete EMEM and incubated for 1 (Golgi) or 5 days (ER) at 37° C., 5% CO2 with or without the mannosidase inhibitor swainsonine at 100 uM. The appropriate targeted substrate for staining either the ER or Golgi was then applied at a final concentration of 20 uM and incubated for 4 hours at 37° C., 5% CO2.
Following incubation the cells were washed in PBS and bathed in Opti-Klear™ Imaging Buffer (Marker Gene Technologies, Inc Eugene Oreg.) with or without nuclear stain Hoechst 33342. Cells were then imaged on an EVOS Auto-FL fluorescence microscope (Life Technologies) fitted with a TexasRed™ light cube.

As for `O[C@H]1[C@H]2[C@H](O)CCCN2C[C@H]1O` [swainsonine], the “effect on mannosidase activity seen by targeted substrate staining” value was “reduction in enzyme activity”.

These data come from US10401361B2, “Intracellular organelle peptide targeted enzyme substrates” (Marker Gene Technologies, Inc., priority 2009, dated 2019).
